From ChEMBL document CHEMBL1201862, “PubChem BioAssay data set” (2004)
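Compound exposure: 48 hours, 5 concentrations, 96-well plates. GI50 marks 50% less growth.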 Calls of active or inactive are those of the source. No stated cut-off is given here; in the data, active = GI50 up to about 1.1 µM and inactive = higher.

Experiments:
Assay in all cases: NCI-60 cell line screen, 48 h
M14 = system: M14
OVCAR-4 = system: OVCAR-4
OVCAR-3 = system: OVCAR-3
A549 = system: A549
A498 = system: A498
COLO 205 = system: COLO 205
HL-60 = system: HL-60
RXF 393 = system: RXF 393
NCI-H23 = system: NCI-H23
T47D = system: T47D
CAKI-1 = system: CAKI-1
MCF7 = system: MCF7
HCT-116 = system: HCT-116
CCRF-CEM = system: CCRF-CEM
SR = system: SR
PC-3 = system: PC-3
Malme-3M = system: Malme-3M
MDA-N = system: MDA-N
NCI-H226 = system: NCI-H226
HOP-62 = system: HOP-62
SN12C = system: SN12C
TK-10 = system: TK-10
KM12 = system: KM12
RPMI-8226 = system: RPMI-8226
SW-620 = system: SW-620
NCI-H460 = system: NCI-H460
SNB-75 = system: SNB-75
HT-29 = system: HT-29
UACC-257 = system: UACC-257
NCI/ADR-RES = system: NCI/ADR-RES
SK-MEL-2 = system: SK-MEL-2
SK-MEL-5 = system: SK-MEL-5
SF-539 = system: SF-539
HCC 2998 = system: HCC 2998
SNB-19 = system: SNB-19
OVCAR-8 = system: OVCAR-8
IGROV-1 = system: IGROV-1
SF-268 = system: SF-268
MDA-MB-231 = system: MDA-MB-231
UO-31 = system: UO-31
HCT-15 = system: HCT-15
U-251 = system: U-251
HOP-92 = system: HOP-92
BT-549 = system: BT-549
MDA-MB-435 = system: MDA-MB-435
SF-295 = system: SF-295
SK-OV-3 = system: SK-OV-3
DU-145 = system: DU-145
MOLT-4 = system: MOLT-4
NCI-H522 = system: NCI-H522
ACHN = system: ACHN
OVCAR-5 = system: OVCAR-5
EKVX = system: EKVX
SK-MEL-28 = system: SK-MEL-28
786-0 = system: 786-0
UACC-62 = system: UACC-62
Hs-578T = system: Hs-578T
LOX IMVI = system: LOX IMVI
K562 = system: K562

NC(=S)NN=C1Cc2ccccc2C1
GI50 (M14): > 100 µM (inactive)
GI50 (OVCAR-4): > 100 µM (inactive)
GI50 (OVCAR-3): > 100 µM (inactive)
GI50 (A549): > 100 µM (inactive)
GI50 (A498): > 100 µM (inactive)
GI50 (COLO 205): > 100 µM (inactive)
GI50 (HL-60): > 100 µM (inactive)
GI50 (RXF 393): > 100 µM (inactive)
GI50 (NCI-H23): > 100 µM (inactive)
GI50 (T47D): > 100 µM (inactive)
GI50 (CAKI-1): > 100 µM (inactive)
GI50 (MCF7): > 100 µM (inactive)
GI50 (HCT-116): > 100 µM (inactive)
GI50 (CCRF-CEM): > 100 µM (inactive)
GI50 (SR): > 100 µM (inactive)
GI50 (PC-3): > 100 µM (inactive)
GI50 (Malme-3M): > 100 µM (inactive)
GI50 (MDA-N): > 100 µM (inactive)
GI50 (NCI-H226): > 100 µM (inactive)
GI50 (HOP-62): > 100 µM (inactive)
GI50 (SN12C): > 100 µM (inactive)
GI50 (TK-10): > 100 µM (inactive)
GI50 (KM12): > 100 µM (inactive)
GI50 (RPMI-8226): > 100 µM (inactive)
GI50 (SW-620): > 100 µM (inactive)
GI50 (NCI-H460): > 100 µM (inactive)
GI50 (SNB-75): > 100 µM (inactive)
GI50 (HT-29): > 100 µM (inactive)
GI50 (UACC-257): > 100 µM (inactive)
GI50 (NCI/ADR-RES): > 100 µM (inactive)
GI50 (SK-MEL-2): > 100 µM (inactive)
GI50 (SK-MEL-5): > 100 µM (inactive)
GI50 (SF-539): > 100 µM (inactive)
GI50 (HCC 2998): > 100 µM (inactive)
GI50 (SNB-19): > 100 µM (inactive)
GI50 (OVCAR-8): > 100 µM (inactive)
GI50 (IGROV-1): > 100 µM (inactive)
GI50 (SF-268): > 100 µM (inactive)
GI50 (MDA-MB-231): > 100 µM (inactive)
GI50 (UO-31): > 100 µM (inactive)
GI50 (HCT-15): > 100 µM
GI50 (U-251): > 100 µM (inactive)
GI50 (HOP-92): > 100 µM (inactive)
GI50 (BT-549): > 100 µM (inactive)
GI50 (MDA-MB-435): > 100 µM (inactive)
GI50 (SF-295): > 100 µM (inactive)
GI50 (SK-OV-3): > 100 µM (inactive)
GI50 (DU-145): > 100 µM (inactive)
GI50 (MOLT-4): > 100 µM (inactive)
GI50 (NCI-H522): > 100 µM (inactive)
GI50 (ACHN): > 100 µM (inactive)
GI50 (OVCAR-5): > 100 µM (inactive)
GI50 (EKVX): 42.3 µM (inactive)
GI50 (SK-MEL-28): > 100 µM (inactive)
GI50 (786-0): > 100 µM (inactive)
GI50 (UACC-62): > 100 µM (inactive)
GI50 (Hs-578T): > 100 µM (inactive)
GI50 (LOX IMVI): > 100 µM (inactive)
GI50 (K562): > 100 µM (inactive)

CCC(CCCC[C@H]1CC[C@@H]2CC(=O)C[C@H]12)OC (stereo not given in full)
GI50 (M14): > 100 µM (inactive)
GI50 (OVCAR-4): > 100 µM (inactive)
GI50 (OVCAR-3): > 100 µM (inactive)
GI50 (A549): > 100 µM (inactive)
GI50 (A498): > 100 µM (inactive)
GI50 (COLO 205): > 100 µM (inactive)
GI50 (HL-60): 39.5 µM (inactive)
GI50 (RXF 393): > 100 µM (inactive)
GI50 (NCI-H23): 35.2 µM (inactive)
GI50 (T47D): > 100 µM (inactive)
GI50 (CAKI-1): > 100 µM (inactive)
GI50 (MCF7): > 100 µM (inactive)
GI50 (HCT-116): 76 µM (inactive)
GI50 (CCRF-CEM): > 100 µM (inactive)
GI50 (SR): 51.8 µM (inactive)
GI50 (PC-3): > 100 µM (inactive)
GI50 (Malme-3M): > 100 µM (inactive)
GI50 (MDA-N): > 100 µM (inactive)
GI50 (NCI-H226): > 100 µM (inactive)
GI50 (HOP-62): > 100 µM (inactive)
GI50 (SN12C): > 100 µM (inactive)
GI50 (TK-10): > 100 µM (inactive)
GI50 (KM12): > 100 µM (inactive)
GI50 (RPMI-8226): > 100 µM (inactive)
GI50 (SW-620): > 100 µM (inactive)
GI50 (NCI-H460): > 100 µM (inactive)
GI50 (SNB-75): 59 µM (inactive)
GI50 (HT-29): > 100 µM (inactive)
GI50 (UACC-257): 46.5 µM (inactive)
GI50 (NCI/ADR-RES): 66.5 µM (inactive)
GI50 (SK-MEL-2): > 100 µM (inactive)
GI50 (SK-MEL-5): 31.8 µM (inactive)
GI50 (SF-539): > 100 µM (inactive)
GI50 (HCC 2998): > 100 µM (inactive)
GI50 (SNB-19): > 100 µM (inactive)
GI50 (OVCAR-8): > 100 µM (inactive)
GI50 (IGROV-1): > 100 µM (inactive)
GI50 (SF-268): > 100 µM (inactive)
GI50 (MDA-MB-231): > 100 µM (inactive)
GI50 (HCT-15): > 100 µM
GI50 (U-251): > 100 µM (inactive)
GI50 (HOP-92): > 100 µM (inactive)
GI50 (BT-549): 50.7 µM (inactive)
GI50 (MDA-MB-435): > 100 µM (inactive)
GI50 (SF-295): > 100 µM (inactive)
GI50 (SK-OV-3): > 100 µM (inactive)
GI50 (DU-145): > 100 µM (inactive)
GI50 (MOLT-4): > 100 µM (inactive)
GI50 (NCI-H522): > 100 µM (inactive)
GI50 (ACHN): > 100 µM (inactive)
GI50 (OVCAR-5): > 100 µM (inactive)
GI50 (EKVX): 59 µM (inactive)
GI50 (SK-MEL-28): > 100 µM (inactive)
GI50 (786-0): > 100 µM (inactive)
GI50 (UACC-62): 76 µM (inactive)
GI50 (Hs-578T): > 100 µM (inactive)
GI50 (LOX IMVI): > 100 µM (inactive)
GI50 (K562): 25.6 µM (inactive)

CCCCC[C@@H]1OCO[C@@]2(C)/C=C(C)\C=C/C(=O)O[C@H]([C@@H](C)[C@@H](O)[C@H](C)[C@@]3(O)C[C@@H](O[C@H]4C[C@@H](O)[C@H](O)[C@@H](C)O4)[C@H](C)[C@@H](C)O3)[C@@H](OC)/C=C\C=C(\C)C[C@@H]1[C@@H]2O (stereo in doubt)
GI50 (M14): < 0.005 µM (active)
GI50 (OVCAR-4): < 0.005 µM (active)
GI50 (OVCAR-3): < 0.005 µM (active)
GI50 (A549): < 0.005 µM (active)
GI50 (A498): < 0.005 µM (active)
GI50 (COLO 205): < 0.005 µM (active)
GI50 (HL-60): < 0.005 µM (active)
GI50 (RXF 393): < 0.005 µM (active)
GI50 (NCI-H23): 0.5 µM (active)
GI50 (T47D): < 0.005 µM (active)
GI50 (CAKI-1): < 0.005 µM (active)
GI50 (MCF7): < 0.005 µM (active)
GI50 (HCT-116): < 0.005 µM (active)
GI50 (CCRF-CEM): < 0.005 µM (active)
GI50 (SR): < 0.005 µM (active)
GI50 (PC-3): < 0.005 µM (active)
GI50 (Malme-3M): < 0.005 µM (active)
GI50 (MDA-N): < 0.005 µM (active)
GI50 (NCI-H226): < 0.005 µM (active)
GI50 (HOP-62): 0.0573 µM (active)
GI50 (SN12C): 0.0231 µM (active)
GI50 (TK-10): 0.119 µM (active)
GI50 (KM12): < 0.005 µM (active)
GI50 (RPMI-8226): < 0.005 µM (active)
GI50 (SW-620): < 0.005 µM (active)
GI50 (NCI-H460): < 0.005 µM (active)
GI50 (SNB-75): < 0.005 µM (active)
GI50 (HT-29): < 0.005 µM (active)
GI50 (UACC-257): < 0.005 µM (active)
GI50 (NCI/ADR-RES): 0.5 µM (active)
GI50 (SK-MEL-2): < 0.005 µM (active)
GI50 (SK-MEL-5): < 0.005 µM (active)
GI50 (SF-539): < 0.005 µM (active)
GI50 (HCC 2998): < 0.005 µM (active)
GI50 (SNB-19): 0.0995 µM (active)
GI50 (OVCAR-8): < 0.005 µM (active)
GI50 (IGROV-1): < 0.005 µM (active)
GI50 (SF-268): < 0.005 µM (active)
GI50 (MDA-MB-231): 0.0239 µM (active)
GI50 (HCT-15): 0.5 µM
GI50 (U-251): < 0.005 µM (active)
GI50 (HOP-92): < 0.005 µM (active)
GI50 (BT-549): 0.5 µM (active)
GI50 (MDA-MB-435): < 0.005 µM (active)
GI50 (SF-295): < 0.005 µM (active)
GI50 (SK-OV-3): 1.35 µM (inactive)
GI50 (DU-145): < 0.005 µM (active)
GI50 (MOLT-4): < 0.005 µM (active)
GI50 (NCI-H522): < 0.005 µM (active)
GI50 (ACHN): < 0.005 µM (active)
GI50 (OVCAR-5): < 0.005 µM (active)
GI50 (EKVX): < 0.005 µM (active)
GI50 (SK-MEL-28): 0.0724 µM (active)
GI50 (786-0): < 0.005 µM (active)
GI50 (UACC-62): < 0.005 µM (active)
GI50 (Hs-578T): 1.2 µM (inactive)
GI50 (LOX IMVI): < 0.005 µM (active)
GI50 (K562): < 0.005 µM (active)
